Here are results for four sequences from patent US10982196B2, “Immunotherapy targeting intracellular pathogens” (LIFE SCIENCES RESEARCH PARTNERS VZW, priority 2008, dated 2021).

The test system of assay [1] is IDO (indolamine-2,3-dioxygenase). In kind it is cell-based, BALB/c. To be noted: dendritic cells pre-loaded with SEQ ID NO:5 or 7, 8 h co-culture with CD4+ T cells of mice immunised with SEQ ID NO:6 or 8; example written in present tense.
Assay [2] has as its system dendritic cells. Put plainly: Reactive oxygen intermediates in antigen-presenting cells co-cultured with CD4+ T cells expanded with modified ESAT-6 epitope, Facs (DCFDA). In kind it is cell-based, C57Bl/6 mice. To be noted: dendritic cells loaded with SEQ ID NO:3, 2 h co-culture with CD4+ T cells expanded with SEQ ID NO:4; example written in present tense.
Assay [3] deals with induced nitric oxide synthase. Put plainly: Reactive nitrogen intermediates in antigen-presenting cells, RT-PCR for transcripts of nitric oxide synthase. Conditions: dendritic cells co-cultured 6 h with CD4+ T cells and peptide of SEQ ID NO:4; example written in present tense. Type of assay: cell-based, C57Bl/6 mice.
Assay [4] concerns dendritic cells. Conditions: dendritic cells loaded with peptide of SEQ ID NO:1, 2 h co-culture with CD4+ T cell line expanded with the peptide; compared with line expanded with SEQ ID NO:1; FIG. 1.
Method: Adenovirus of serotype 5 (Ad.RR5, E1/E3-deleted) was used in these experiments. Thus, 5 μL of a solution containing 2×10^11 viral particles/ml was administered by the intravenous route to 6 weeks old C57Bl/6 mice. Ten days later, the spleen of such mice was recovered and CD4+ T cells purified by magnetic sorting.
CD4+ T cells obtained from Ad.RR5-immunized mice were cultured in the presence of T lymphocyte-depleted spleen adherent cells used as antigen-presenting cells pre-incubated with either peptide of SEQ ID NO:1 or peptide of SEQ ID NO:2. After two cycles of restimulation, the CD4+ T cell lines were allowed to rest for 10 days. […] The generation of reactive oxygen intermediates (ROI) by dendritic cells was then evaluated after 2 h of co-culture. Dendritic cells were prepared from the spleen of C57Bl/6 mice by sorting on magnetic beads coated with an anti-CD11c specific antibody.
Thus, 10^5 dendritic cells were incubated for 1 h with 10 μM DCFDA, a derivative of fluorescein used as an indicator of ROI generation. […] Fluorescence increases generated by DCFDA oxidation by reactive oxygen intermediates are read in a Facs gated on CD11c(+) cells.

“CGHCDKHIEQYLK (modified Th2R T-cell epitope; (1)..(4) thioreductase motif) [SEQ ID NO:6]”: in assay [1], the “expression of IDO in dendritic cells” value was “induces a reverse signalling leading to expression of IDO”.
Take “CGHCFAGIEAAAS (modified ESAT6 T-cell epitope; (1)..(4) thioreductase motif) [SEQ ID NO:4]”: in the assay on dendritic cells [2], the “production of reactive oxygen intermediates in antigen-presenting cells” value is “shown to be induced”. The “production of reactive nitrogen intermediates in antigen-presenting cells” value in assay [3] is “shown to be induced”.
For “CHGCPTLLYVLFEV (modified T-cell epitope of capsid protein adenovirus serotype 5; (1)..(4) thioreductase motif) [SEQ ID NO:2]”, the “ROI produced by dendritic cells” value in the assay with dendritic cells [4] was “significantly more ROI”.
Take “CGHCEKKICKMEK (modified T-cell epitope of CSP antigen Plasmodium falciparum; (1)..(4) modified T-cell epitope) [SEQ ID NO:8]”: the “expression of IDO in dendritic cells” value in assay [1] was “induces a reverse signalling leading to expression of IDO”.
